Laboratory results from the NIST ThermoML archive (doi:10.1021/je900442b).

How the values were obtained:
[1] = xn = mol fraction of the nth substance listed; conditions: 101 kPa, Liquid
[2] = 101 kPa, Liquid

CCCCOC(C)=O [butyl ethanoate] + CO
[1]
Conditions | mass density, 298.15 K [kg/m3] | mass density, 303.15 K [kg/m3] | mass density, 308.15 K [kg/m3] | mass density, 313.15 K [kg/m3] | speed of sound, 298.15 K [m/s] | speed of sound, 303.15 K [m/s] | speed of sound, 308.15 K [m/s] | speed of sound, 313.15 K [m/s]
x1 = 0.1004 | 810.58 | 805.75 | 800.39 | 795.84 | 1130 | 1112 | 1092 | 1076
x1 = 0.2329 | 831.49 | 826.61 | 821.09 | 816.38 | 1151 | 1132 | 1111 | 1093
x1 = 0.2996 | 839.18 | 834.29 | 828.66 | 823.89 | 1160 | 1140 | 1118 | 1100
x1 = 0.4008 | 848.46 | 843.52 | 837.84 | 833.02 | 1171 | 1151 | 1128 | 1109
x1 = 0.498 | 855.46 | 850.52 | 844.77 | 839.91 | 1179 | 1159 | 1136 | 1116
x1 = 0.5988 | 861.3 | 856.34 | 850.55 | 845.66 | 1185 | 1165 | 1141 | 1122
x1 = 0.6994 | 866.05 | 861.1 | 855.28 | 850.36 | 1189 | 1170 | 1145 | 1126
x1 = 0.7912 | 869.71 | 864.74 | 858.91 | 853.98 | 1191 | 1172 | 1148 | 1128
x1 = 0.8992 | 873.3 | 868.38 | 862.52 | 857.58 | 1191 | 1173 | 1149 | 1130
x1 = 1 | 876.18 | 871.27 | 865.41 | 860.46 | 1190 | 1173 | 1150 | 1131

CO [methanol] + CCCCOC(C)=O
[1], x2 = 0
Conditions | mass density [kg/m3] | speed of sound [m/s]
298.15 K | 786.38 | 1109
303.15 K | 781.65 | 1092
308.15 K | 776.52 | 1074
313.15 K | 772.15 | 1060

CC(=O)OC(C)(C)C [1,1-dimethylethyl ethanoate]
[2]
Conditions | mass density [kg/m3] | speed of sound [m/s]
298.15 K | 859.75 | 1091
303.15 K | 853.94 | 1078
308.15 K | 848.34 | 1049
313.15 K | 842.67 | 1040
